Measured values published in patent US12582721B2, “Molybdenum-based feed supplement for bees” (UNIVERSITE DE VERSAILLES—SAINT-QUENTIN-EN-YVELINES, priority 2020, dated 2026).

Assays:
[1] = tested on: families of European domestic bees; assay: 2nd test in the hives: power of the bee family; assay type: in vivo, Apis mellifera carpatica; settings: overall dose 2 mg/hive, 10 hives
Procedure: The power of the bee colony represents the number of bees present in the honeycomb at the time of the assessment. The assessment is performed three times per year: at the spring visit (March-April), at the end of spring (20-31 May) and at the visit in autumn (September). After these three assessments, the average power of the bee family is determined. The amount of bees (kg) is determined by multiplying the number of intervals between the frames, uniformly occupied by the bees, by the coefficient 0.25 for the standard […] frame (435×300 mm) and by 0.2 for the standard Langstroth frame (435×230 mm). The 2nd test was performed in the same apiary the following year. Feeding with the complex of the invention took place in spring. The biological tests were monitored up to the month of September. The molecules tested, their concentration in solution and their annual overall doses are listed below: • 1. […] The concentration of the complex in syrup: 1.5×10^-7 mol/L. Overall product dose: 2 mg/colony • 2. […] Overall complex dose: 6 mg/colony • 4. LiCH3COO·H2O for comparison, abbreviated as Li-Ac • The feeding is carried out with 2000 g of candy containing 0.8 mg of product then 6 to 7 L of syrup containing 0.2 mg/L of product. The concentration of product in the syrup: 2.36×10^-6 mol/L that is 1.67×10^-5 g/L. Overall product dose: 2 mg/colony

Varroa destructor [2] = assay: 2nd test in the hives: degree of larvae infestation with Varroa; assay type: in vivo; settings: for Degree of larvae infestation with Varroa: 100 = larvae infestation rate of 28.2%; for Degree of larvae infestation with Varroa, change versus batch I: value in brackets
Procedure: The 2nd test was performed in the same apiary the following year. Feeding with the complex of the invention took place in spring. The biological tests were monitored up to the month of September. The molecules tested, their concentration in solution and their annual overall doses are listed below: • 1. […] The concentration of the complex in syrup: 1.5×10^-7 mol/L. Overall product dose: 2 mg/colony • 2. […] Overall complex dose: 6 mg/colony • 4. LiCH3COO·H2O for comparison, abbreviated as Li-Ac • The feeding is carried out with 2000 g of candy containing 0.8 mg of product then 6 to 7 L of syrup containing 0.2 mg/L of product. The concentration of product in the syrup: 2.36×10^-6 mol/L that is 1.67×10^-5 g/L. Overall product dose: 2 mg/colony [table]

Varroa destructor [3] = assay: 2nd test in the hives: degree of infestation of bees with Varroa; assay type: in vivo; settings: for Degree of infestation with Varroa: 100 = 2.32 mite/10 g of bees; for Degree of infestation with Varroa, change versus batch I: value in brackets
From the text: The assessment consists in counting the number of Varroa on a sample of adult bees. The value from this count is used as an index for monitoring the level of parasitism in the colony. The method uses icing sugar and a “shaker” jar made of transparent glass with a capacity of 1 kg. The cover is a mesh made of galvanized steel of the type placed at the bottom of the hive, with a mesh size of 3 mm. The mesh allows Varroa mites to pass through but retains the honey bees. The method is implemented according to the following steps: 40 to 50 g of honey bees are collected in the jar (approximately 400 bees), 100 g of icing sugar is added and the shaker jar is rolled for 1 minute so as to cover every bee in icing sugar. The icing sugar then makes it possible to separate the Varroa mites from the body of the host bee so that they drop off. Leave to rest for 1 minute: bees have a delousing behavior, which helps the Varroa mites to drop off. The icing sugar is sieved over a sieve which makes it possible to retain the Varroa mites and then count them. The result is given as the number of mites per 10 g of bees (approximately 100 bees) and can be expressed as a %. This rate is indicative of the Varroa burden in the colony. […] A moderate rate is between 2 and 5 and, in this case, treatment of the colonies must be scheduled. Finally, a rate greater than 5, requires emergency treatment of the colony. Our tests give a result of around 2% for worker bees. The 2nd test was performed in the same apiary the following year. Feeding with the complex of the invention took place in spring. The biological tests were monitored up to the month of September. The molecules tested, their concentration in solution and their annual overall doses are listed below: • 1. […] The concentration of the complex in syrup: 1.5×10^-7 mol/L. Overall product dose: 2 mg/colony • 2. […] Overall complex dose: 6 mg/colony • 4. LiCH3COO·H2O for comparison, abbreviated as Li-Ac • The feeding is carried out with 2000 g of candy containing 0.8 mg of product then 6 to 7 L of syrup containing 0.2 mg/L of product. The concentration of product in the syrup: 2.36×10^-6 mol/L that is 1.67×10^-5 g/L. Overall product dose: 2 mg/colony

[4] = tested on: human epithelial pancreatic adenocarcinoma cells of the BxPC-3 line; assay: Resazurin cell proliferation test, BxPC-3 cells; assay type: cell-based; settings: pancreatic cancer cells; IC50 equal to and greater than 100 μM considered no activity
From the text: (§1) For cell culture, human cervical epithelial cells of the HeLa line, human epithelial pancreatic adenocarcinoma cells of the BxPC-3 line and healthy Madin-Darby canine kidney epithelial cells of the MDCK line were used in this study. The Resazurin cell proliferation test was applied according to the literature (S. Anoopkumar-Dukie, J. B. Carey, T. Conere, E. O'Sullivan, F. N. van Pelt, A. Allshire, Br J Radiol 2005, 78, 945, DOI: 10.1259/bjr/54004230). As an indicator of the effectiveness of the experimental compounds on cell proliferation, the median inhibitory concentration (IC50) was used. The lower the IC50 value, the higher the activity (in this case, the cytotoxicity).
(§2) Five formula I complexes were tested in this study in comparison to two reference anti-cancer compounds (“Cisplatin” and Doxorubicin complex).

[5] = tested on: human cervical epithelial cells of the HeLa line; assay: Resazurin cell proliferation test, HeLa cells; assay type: cell-based; settings: cervical cancer cells; IC50 equal to and greater than 100 μM considered no activity
From the text: as §1, §2

SMILES	Power of the bee family [1]	Degree of larvae infestation with Varroa (Varroa destructor [2]; overall dose 2 mg/hive)	Degree of larvae infestation with Varroa, change versus batch I (Varroa destructor [2]; overall dose 2 mg/hive)	Degree of infestation with Varroa (Varroa destructor [3]; overall dose 2 mg/hive)	Degree of infestation with Varroa, change versus batch I (Varroa destructor [3]; overall dose 2 mg/hive)	Degree of larvae infestation with Varroa (Varroa destructor [2]; overall dose 6 mg/hive)	Degree of larvae infestation with Varroa, change versus batch I (Varroa destructor [2]; overall dose 6 mg/hive)	IC50, BxPc-3 [4]	Degree of infestation with Varroa (Varroa destructor [3]; overall dose 6 mg/hive)	Degree of infestation with Varroa, change versus batch I (Varroa destructor [3]; overall dose 6 mg/hive)	IC50, HeLa [5]	IC50 [4]	IC50 [5]
CC(=O)[O-].[Li+] [Li—Ac, LiCH3COO·H2O, reference compound]	97.5 % relative to batch I	64.9 % relative to batch I	−35.1%	69.0 % relative to batch I	−31%								
O.O.O.O.O.O.O=C([O-])CN(CCN(CC(=O)[O-])CC(=O)[O-])CC(=O)[O-].[Li+].[Li+].[O]=[Mo+]12[O][Mo+]1(=[O])[O]2 [Li—Mo2O4-EDTA, Li2[Mo2O4 (EDTA)]·6H2O]	120 % relative to batch I	42.6 % relative to batch I	−57.4%	52.6 % relative to batch I	−47.4%	18.4 % relative to batch I	−81.6%	Inactive	38.4 % relative to batch I	−62.6%	Inactive		
O.O.O.O.O.O=C([O-])CN(CCN(CC(=O)[O-])CC(=O)[O-])CC(=O)[O-].[Na+].[Na+].[O]=[Mo+]12[O][Mo+]1(=[O])[O]2 [Na—Mo2O4-EDTA, Na2[Mo2O4 (EDTA)]·5H2O]								Inactive			Inactive		
O=C([O-])CN(CCN(CC(=O)[O-])CC(=O)[O-])CC(=O)[O-].[O]=[Mo+]12[O][Mo+]1(=[O])[O]2.c1ccc([P+](c2ccccc2)(c2ccccc2)c2ccccc2)cc1.c1ccc([P+](c2ccccc2)(c2ccccc2)c2ccccc2)cc1 [PPh4—Mo2O4-EDTA, (PPh4)2[Mo2O4 (EDTA)]·2.5H2O]	120 % relative to batch I	56.0 % relative to batch I	−44.0%	60.8 % relative to batch I	−39.2%							25.1 ± 7.02 µM	≥ 100 µM
